Reference: US12528790B2, “Amide derivative having antiviral activity” (Shionogi & Co., Ltd., priority 2020, dated 2026)
Like-named read-outs stand apart in the source and are kept apart here.

Tested on: RSV A2 strain
Experiment: In vitro CPE (CytoPathic Effect) inhibition effect evaluation test, RSV type A
Type: cell-based
Method: The test sample is diluted in advance to an appropriate concentration with DMSO, and 3-fold series of serial dilutions were prepared on a 384-well plate (0.32 μL/well). HEp-2 cells (CCL-23; ATCC) adjusted at appropriate number (2.4×10^5 cells/mL) in 2% FBS E-MEM (prepared by adding kanamycin and FBS to Eagle's Minimum Essential Medium; Invitrogen) were added at 12.5 μL/well to the 384-well plate previously aliquoted with the test samples. The RSV A2 strain was diluted to an appropriate concentration in a culture medium and added to the 384-well plate containing the test sample at 12.5 μL/well. The culture medium was added additionally to the 384-well plate, and the test was started with 50 μL/well. Control wells were prepared with only virus-free culture medium. The plate was incubated in a 5% CO2 incubator at 37° C. for 4 days, and the plate was then placed at room temperature for 30 minutes. CellTiter-Glo (registered trademark) 2.0 assay (Promega) was added at 15 μL/well, mixed for 30 seconds, and the plate was placed for approximately 1 hour. The luminescent signal was then measured by EnVision (PerkinElmer). The inhibitory effect of the test agents on RSV-induced CPE was calculated as 0% and 100% inhibition rate for each sample concentration based on the level of remaining viable cells by CellTiter-Glo (registered trademark) 2.0, with the EC50 value for each compound calculated by nonlinear regression as the concentration that inhibits RSV-induced CPE by 50%. In the case of evaluation against RSV type B, RSV B (Wash/18537 strain) was infected in the same manner as the type A, cultured for 5 days, and quantitated in the same manner as for the A2 strain.

[1] = human respiratory syncytial virus, inhibitory effect against RSV type A (RSV A2 strain), HEp-2 cells, CPE inhibition, read-out: EC50
[2] = human respiratory syncytial virus, HEp-2
[3] = inhibitory effect against RSV type A (RSV A2 strain), HEp-2 cells, CPE inhibition, read-out: EC50

In the case of `COc1ccc(N2CCC(Oc3ccc4c(c3)CCN4c3ncc(C(=O)NC4(C(=O)O)CCCCC4)c(C(F)(F)F)n3)CC2)nc1` [Compound I-78], the EC50 [1] is reported as < 10 nM.

With `COc1ccnc(N2CCC(Oc3ccc4c(c3)CCN4c3ncc(C(=O)NC4(C(=O)O)CCCCC4)c(C(F)(F)F)n3)CC2)c1` [Compound I-79] the EC50 [1] was 10 to 100 nM.

`O=C(NC1(C(=O)O)CCCCC1)c1cnc(N2CCc3cc(OC4CCN(c5ccncc5)CC4)ccc32)nc1C(F)(F)F` [Compound I-84] showed an EC50 [1] of 10 to 100 nM.

`O=C(NC1(C(=O)O)CCCCC1)c1cnc(N2CC3(CCOCC3)c3cc(OCCN4CCOCC4)ccc32)nc1C(F)(F)F` [Compound I-85] was tested, and the EC50 [1] was 10 to 100 nM.

Compound `O=C(NC1(C(=O)O)CCCCC1)c1cnc(N2CC3(CCNCC3)c3cc(OCCC4CCOCC4)ccc32)nc1C(F)(F)F` [Compound I-89] has an EC50 [2] of 100 to 5000 nM.

Compound `COc1ccc2c(n1)C1(CCOCC1)CN2c1ncc(C(=O)NC2(C(=O)O)CCCCC2)c(C(F)(F)F)n1` [Compound I-90] has an EC50 [1] of 100 to 5000 nM.

For `N#CC1(NC(=O)c2cnc(N3CC4(CCOCC4)c4cc(OC5CCN(c6ncccn6)CC5)ccc43)nc2C(F)(F)F)CCCCC1` [Compound I-94], the EC50 [1] was < 10 nM.

`CNc1nc(N2CCc3cc(OCCC4CCOCC4)ccc32)nc(C(F)(F)F)c1C(=O)NC1(C(=O)O)C2CC3CC(C2)CC1C3` (stereo not drawn) [Compound I-95] was tested, and the EC50 [3] was < 10 nM.

In the case of `O=C(NC1(c2nn[nH]n2)CCCCC1)c1cnc(N2CC3(CCOCC3)c3cc(OC4CCN(c5ncccn5)CC4)ccc32)nc1C(F)(F)F` [Compound I-98], the EC50 [2] is reported as < 10 nM.

`O=C(NC1(c2noc(=O)[nH]2)CCCCC1)c1cnc(N2CC3(CCOCC3)c3cc(OC4CCN(c5ncccn5)CC4)ccc32)nc1C(F)(F)F` [Compound I-99] was tested, and the EC50 [2] was < 10 nM.

For `O=C(NC1(C(=O)O)C2CC3CC(C2)CC1C3)c1ccc(N2CC3(CCOCC3)c3cc(OCCC4CCOCC4)ccc32)nc1C(F)(F)F` (stereo not drawn) [Compound I-101], the EC50 [3] was < 10 nM.

In the case of `O=C(NC1(C(=O)O)C2CC3CC(C2)CC1C3)c1ccc(N2CC3(CCOCC3)c3cc(OC4CCN(c5ncccn5)CC4)ccc32)nc1C(F)(F)F` (stereo not drawn) [Compound I-102], the EC50 [3] is reported as < 10 nM.

`COc1cccc(COc2ccc3c(n2)C2(CCOCC2)CN3c2ncc(C(=O)NC3(C(=O)O)CCCCC3)c(C(F)(F)F)n2)c1` [Compound I-103] was tested, and the EC50 [1] was < 10 nM.

With `COc1cccc(COc2ccc3c(n2)C2(CCOCC2)CN3c2ncc(C(=O)NC3(C(=O)O)C4CC5CC(C4)CC3C5)c(C(F)(F)F)n2)c1` (stereo not drawn) [Compound I-104] the EC50 [3] was < 10 nM.

In the case of `O=C(NC1(C(=O)O)C2CC3CC(C2)CC1C3)c1cnc(N2CC3(CCOCC3)c3nc(OCCC4CCOCC4)ccc32)nc1C(F)(F)F` (stereo not drawn) [Compound I-105], the EC50 [3] is reported as < 10 nM.

In the case of `O=C(NC1(C(=O)O)CCCCC1)c1cnc(N2CC3(CCOCC3)c3nc(OCCC4CCOCC4)ccc32)nc1C(F)(F)F` [Compound I-106], the EC50 [1] is reported as < 10 nM.

With `O=C(NC1(C(=O)O)C2CC3CC(C2)CC1C3)c1cnc(N2CC3(CCOCC3)c3nc(OC4CCN(c5ncccn5)CC4)ccc32)nc1C(F)(F)F` (stereo not drawn) [Compound I-107] the EC50 [3] was < 10 nM.

`O=C(NC1(C(=O)O)CCCCC1)c1cnc(N2CC3(CCOCC3)c3nc(OC4CCN(c5ncccn5)CC4)ccc32)nc1C(F)(F)F` [Compound I-108] was tested, and the EC50 [1] was < 10 nM.

In the case of `O=C(NC1(C(=O)O)C2CC3CC(C2)CC1C3)c1cnc(N2CC3(CCOCC3)c3cc(/C=C/CC4CCOCC4)ccc32)nc1C(F)(F)F` (stereo not drawn) [Compound I-110], the EC50 [3] is reported as < 10 nM.

For `O=C(NC1(C(=O)O)C2CC3CC(C2)CC1C3)c1cnc(N2CC3(CCOCC3)c3cc(C=C4CCN(C(=O)OCc5ccccc5)CC4)ccc32)nc1C(F)(F)F` (stereo not drawn) [Compound I-111], the EC50 [3] was < 10 nM.

Compound `CCNC(=O)N1CCC(Oc2ccc3c(c2)CCN3c2ncc(C(=O)NC3(C(=O)O)CCCCC3)c(C(F)(F)F)n2)CC1` [Compound I-112] has an EC50 [1] of 10 to 100 nM.

In the case of `O=C(NC1(C(=O)O)C2CC3CC(C2)CC1C3)c1cnc(N2CC3(CCOCC3)c3cc(CCCC4CCOCC4)ccc32)nc1C(F)(F)F` (stereo not drawn) [Compound I-114], the EC50 [1] is reported as < 10 nM.

`O=C(NC1(C(=O)O)C2CC3CC(C2)CC1C3)c1cnc(N2CC3(CCOCC3)c3cc(C4CC4)ccc32)nc1C(F)(F)F` (stereo not drawn) [Compound I-115] was tested, and the EC50 [1] was < 10 nM.

With `Cn1cc(-c2ncc(C(=O)NC3(C(=O)O)C4CC5CC(C4)CC3C5)c(C(F)(F)F)n2)c2ccc(OCCC3CCOCC3)cc21` (stereo not drawn) [Compound I-116] the EC50 [1] was < 10 nM.

`Cn1cc(-c2ncc(C(=O)NC3(C(=O)O)CCCCC3)c(C(F)(F)F)n2)c2ccc(OCCC3CCOCC3)cc21` [Compound I-117] was tested, and the EC50 [1] was 10 to 100 nM.

`O=C(NC1(C(=O)O)C2CC3CC(C2)CC1C3)c1cnc(N2CC3(CCOCC3)c3cc(CC4CCN(c5ncccn5)CC4)ccc32)nc1C(F)(F)F` (stereo not drawn) [Compound I-119] was tested, and the EC50 [1] was < 10 nM.

`COc1ccc2c(n1)C1(CCOCC1)CN2c1ccc(C(=O)NC2(C(=O)O)C3CC4CC(C3)CC2C4)c(C(F)(F)F)n1` (stereo not drawn) [Compound I-120] was tested, and the EC50 [1] was < 10 nM.

`COc1ccc2c(c1)C1(CCOCC1)CN2c1ccc(C(=O)NC2(C(=O)O)C3CC4CC(C3)CC2C4)c(C(F)(F)F)n1` (stereo not drawn) [Compound I-121] was tested, and the EC50 [1] was < 10 nM.

With `Cc1ccc2c(c1)C1(CCOCC1)CN2c1ccc(C(=O)NC2(C(=O)O)C3CC4CC(C3)CC2C4)c(C(F)(F)F)n1` (stereo not drawn) [Compound I-122] the EC50 [1] was < 10 nM.

`O=C(NC1(C(=O)O)C2CC3CC(C2)CC1C3)c1ccc(N2CCc3cc(OCCC4CCOCC4)ccc32)cc1C(F)(F)F` (stereo not drawn) [Compound I-123] was tested, and the EC50 [1] was < 10 nM.

With `COc1ccc2c(c1)CCN2c1ccc(C(=O)NC2(C(=O)O)C3CC4CC(C3)CC2C4)c(C(F)(F)F)c1` (stereo not drawn) [Compound I-124] the EC50 [1] was 10 to 100 nM.

For `O=C(NC1(C(=O)O)C2CC3CC(C2)CC1C3)c1ccc(N2CCc3cc(OCCC4CCOCC4)cnc32)cc1C(F)(F)F` (stereo not drawn) [Compound I-125], the EC50 [1] was 10 to 100 nM.

With `O=C(NC1(C(=O)O)C2CC3CC(C2)CC1C3)c1cnc(N2CCc3cc(OCCC4CCOCC4)cnc32)cc1C(F)(F)F` (stereo not drawn) [Compound I-126] the EC50 [1] was < 10 nM.

With `Cn1nc(-c2ccc(C(=O)NC3(C(=O)O)C4CC5CC(C4)CC3C5)c(C(F)(F)F)n2)c2ccc(OCCC3CCOCC3)cc21` (stereo not drawn) [Compound I-127] the EC50 [1] was < 10 nM.

In the case of `O=C(NC1(C(=O)O)C2CC3CC(C2)CC1C3)c1cnc(N2CC3(CCOCC3)c3cc(C4=CCCC4)ccc32)nc1C(F)(F)F` (stereo not drawn) [Compound I-128], the EC50 [1] is reported as < 10 nM.

For `O=C(NC1(C(=O)O)C2CC3CC(C2)CC1C3)c1cnc(N2CC3(CCOCC3)c3cc(C4CCCC4)ccc32)nc1C(F)(F)F` (stereo not drawn) [Compound I-129], the EC50 [1] was < 10 nM.

In the case of `COCCn1cc(-c2ncc(C(=O)NC3(C(=O)O)C4CC5CC(C4)CC3C5)c(C(F)(F)F)n2)c2ccc(OCCC3CCOCC3)cc21` (stereo not drawn) [Compound I-130], the EC50 [1] is reported as < 10 nM.

With `O=C(NC1(C(=O)O)C2CC3CC(C2)CC1C3)c1cnc(-c2cn(C3CCOCC3)c3cc(OCCC4CCOCC4)ccc23)nc1C(F)(F)F` (stereo not drawn) [Compound I-131] the EC50 [1] was < 10 nM.

`Cc1ccc2c(c1)C1(CCN(C(=O)OCc3ccccc3)CC1)CN2c1ncc(C(=O)NC2(C(=O)O)C3CC4CC(C3)CC2C4)c(C(F)(F)F)n1` (stereo not drawn) [Compound I-132] gave an EC50 [1] of 10 to 100 nM.

With `CCc1ccc2c(c1)C1(CCOCC1)CN2c1ncc(C(=O)NC2(C(=O)O)C3CC4CC(C3)CC2C4)c(C(F)(F)F)n1` (stereo not drawn) [Compound I-133] the EC50 [1] was < 10 nM.

`Cc1ccc2c(c1)C1(CCNCC1)CN2c1ncc(C(=O)NC2(C(=O)O)C3CC4CC(C3)CC2C4)c(C(F)(F)F)n1` (stereo not drawn) [Compound I-134] was tested, and the EC50 [1] was < 10 nM.

For `Cc1ccc2c(c1)C1(CCN(CC(F)(F)F)CC1)CN2c1ncc(C(=O)NC2(C(=O)O)C3CC4CC(C3)CC2C4)c(C(F)(F)F)n1` (stereo not drawn) [Compound I-136], the EC50 [2] was < 10 nM.

For `CCNC(=O)N1CCC2(CC1)CN(c1ncc(C(=O)NC3(C(=O)O)C4CC5CC(C4)CC3C5)c(C(F)(F)F)n1)c1ccc(C)cc12` (stereo not drawn) [Compound I-138], the EC50 [1] was < 10 nM.

`Cc1ccc2c(c1)C1(CCN(c3ncccn3)CC1)CN2c1ncc(C(=O)NC2(C(=O)O)C3CC4CC(C3)CC2C4)c(C(F)(F)F)n1` (stereo not drawn) [Compound I-139] was tested, and the EC50 [1] was < 10 nM.

`CC(C)(C)OC(=O)N1CCC(NC(=O)c2cnc(N3CC4(CCOCC4)c4cc(OC5CCN(c6ncccn6)CC5)ccc43)nc2C(F)(F)F)(C(=O)O)CC1` [Compound I-140] was tested, and the EC50 [1] was 10 to 100 nM.

With `O=C(NC1(C(=O)O)C2CC3CC(C2)CC1C3)c1cnc(-n2c3ccccc3c3cc(OCCC4CCOCC4)ccc32)nc1C(F)(F)F` (stereo not drawn) [Compound I-141] the EC50 [1] was < 10 nM.

For `O=C(NC1(C(=O)O)C2CC3CC(C2)CC1C3)c1cnc(N2CC3(CCOCC3)c3cc(OC4CCC(n5cccn5)CC4)ccc32)nc1C(F)(F)F` (stereo not drawn) [Compound I-143], the EC50 [1] was < 10 nM.

In the case of `O=C(NC1(C(=O)O)CCNCC1)c1cnc(N2CC3(CCOCC3)c3cc(OC4CCN(c5ncccn5)CC4)ccc32)nc1C(F)(F)F` [Compound I-144], the EC50 [1] is reported as 100 to 5000 nM.

In the case of `COC(=O)N1CCC(NC(=O)c2cnc(N3CC4(CCOCC4)c4cc(OC5CCN(c6ncccn6)CC5)ccc43)nc2C(F)(F)F)(C(=O)O)CC1` [Compound I-145], the EC50 [1] is reported as 10 to 100 nM.

In the case of `O=C(NC1(C(=O)O)C2CC3CC(C2)CC1C3)c1ccc(-c2cn(CC(=O)N3CCOCC3)c3cc(OC4CCN(c5ncccn5)CC4)ccc23)nc1C(F)(F)F` (stereo not drawn) [Compound I-149], the EC50 [1] is reported as < 10 nM.

With `O=C(NC1(C(=O)O)C2CC3CC(C2)CC1C3)c1ccc(-c2cn(C(=O)OC3CCCCC3)c3cc(OC4CCN(c5ncccn5)CC4)ccc23)nc1C(F)(F)F` (stereo not drawn) [Compound I-150] the EC50 [1] was < 10 nM.
